# Measured values taken from patent US20060235222A1, “Indole-derivative modulators of steroid hormone nuclear receptors” (ELI LILLY AND COMPANY, priority 2003, published 2006).
# Legend:
# [1] = biological target: T1, human MR (Homo sapiens, UniProt P08235); assay: Mineralocorticoid Receptor Binding Assay (Method 1), [3H]-aldosterone competition; conditions: 0.5 nM [3H]-aldosterone, human MR expressed in Sf9 cells
# T1 construct: The full length human MR gene is cloned from a human kidney or human brain cDNA library; inferred from own knowledge of the pAcHLT vector (N); made in house; host or cells: Sf9 insect cells (baculovirus)
# T1 sequence (P08235 1-984): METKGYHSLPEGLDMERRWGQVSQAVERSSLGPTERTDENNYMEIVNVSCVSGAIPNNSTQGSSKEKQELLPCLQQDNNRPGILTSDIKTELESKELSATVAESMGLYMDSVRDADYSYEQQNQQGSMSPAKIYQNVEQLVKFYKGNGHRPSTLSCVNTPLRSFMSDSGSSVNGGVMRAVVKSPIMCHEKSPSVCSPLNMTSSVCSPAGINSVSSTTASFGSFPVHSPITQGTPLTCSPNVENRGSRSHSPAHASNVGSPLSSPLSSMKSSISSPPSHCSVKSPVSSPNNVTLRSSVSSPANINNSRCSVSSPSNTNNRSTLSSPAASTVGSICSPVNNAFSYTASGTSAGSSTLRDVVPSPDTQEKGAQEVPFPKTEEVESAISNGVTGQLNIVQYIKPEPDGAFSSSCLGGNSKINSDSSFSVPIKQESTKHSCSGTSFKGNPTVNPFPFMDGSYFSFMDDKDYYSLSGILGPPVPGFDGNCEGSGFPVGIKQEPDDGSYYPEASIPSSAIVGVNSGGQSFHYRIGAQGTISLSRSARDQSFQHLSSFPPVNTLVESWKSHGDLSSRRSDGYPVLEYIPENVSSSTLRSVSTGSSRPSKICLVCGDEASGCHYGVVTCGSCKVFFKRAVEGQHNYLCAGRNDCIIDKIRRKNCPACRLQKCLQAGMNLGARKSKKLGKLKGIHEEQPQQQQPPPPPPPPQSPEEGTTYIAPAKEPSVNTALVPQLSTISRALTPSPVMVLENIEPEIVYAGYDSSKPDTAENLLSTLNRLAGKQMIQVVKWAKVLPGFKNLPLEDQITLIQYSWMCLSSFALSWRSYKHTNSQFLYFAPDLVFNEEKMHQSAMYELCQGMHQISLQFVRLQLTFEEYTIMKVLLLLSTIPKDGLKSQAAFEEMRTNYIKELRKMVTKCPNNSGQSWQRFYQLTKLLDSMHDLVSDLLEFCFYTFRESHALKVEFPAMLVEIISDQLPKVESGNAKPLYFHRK
# Procedure, shortened: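 Full-length human MR expressed in Sf9 cells via baculovirus; lysate supernatant (about 20-25 μg protein) incubated with 0.5 nM [3H]-aldosterone and test compound for about 16 h at 4° C. Buffer was Tris/molybdate/phosphate/pyrophosphate with 10% glycerol, pH 7.5; filter-bound complex counted by scintillation.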
# [2] = biological target: T2, glucocorticoid receptor (Homo sapiens, UniProt P04150); assay: Glucocorticoid Receptor Binding Assay (Method 1), [3H]-dexamethasone competition, A549 cell extract; conditions: 1.86 nM [3H]-dexamethasone, read-out: GR Ki (nM) Method 1
# T2 construct: containing 50-200 ug of A549 cell extract and 1.86 nM; host or cells: A549 human lung epithelial cells
# T2 sequence (P04150 1-777): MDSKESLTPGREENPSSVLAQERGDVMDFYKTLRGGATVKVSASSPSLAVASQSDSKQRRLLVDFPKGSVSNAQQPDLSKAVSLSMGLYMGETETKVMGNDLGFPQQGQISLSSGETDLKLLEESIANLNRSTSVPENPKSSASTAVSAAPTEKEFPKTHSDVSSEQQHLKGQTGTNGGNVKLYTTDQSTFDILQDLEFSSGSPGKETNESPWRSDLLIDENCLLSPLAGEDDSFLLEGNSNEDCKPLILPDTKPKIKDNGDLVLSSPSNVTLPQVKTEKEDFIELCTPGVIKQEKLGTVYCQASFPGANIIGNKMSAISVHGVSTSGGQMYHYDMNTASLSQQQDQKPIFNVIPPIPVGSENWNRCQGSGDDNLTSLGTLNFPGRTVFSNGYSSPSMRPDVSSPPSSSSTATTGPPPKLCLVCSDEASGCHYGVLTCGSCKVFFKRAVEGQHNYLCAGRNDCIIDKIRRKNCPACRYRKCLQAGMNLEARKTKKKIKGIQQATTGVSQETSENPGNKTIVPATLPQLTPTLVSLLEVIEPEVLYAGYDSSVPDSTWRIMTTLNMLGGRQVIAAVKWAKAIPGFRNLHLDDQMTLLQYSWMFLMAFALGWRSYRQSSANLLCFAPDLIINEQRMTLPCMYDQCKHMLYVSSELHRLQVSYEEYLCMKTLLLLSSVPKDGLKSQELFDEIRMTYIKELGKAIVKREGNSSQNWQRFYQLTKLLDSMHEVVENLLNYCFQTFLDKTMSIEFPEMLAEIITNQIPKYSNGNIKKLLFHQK
# Procedure: Glucocorticoid Receptor Binding Assay (Method 1):
# A549 human lung epithelial cells (ATCC) are grown at a scale where gram quantity cell pellets are obtained. Harvested cell pellets are washed twice in cold phosphate buffered saline, centrifuged, and resuspended in cold assay binding buffer. The assay binding buffer consists of 10% glycerol, 50 mM Tris-HCl (pH7.2), 75 mM sodium chloride, 1.5 mM magnesium chloride, 1.5 mM EDTA, and 10 mM sodium molybdate. Cell suspensions were lysed via sonication, centrifuged, and the “extract” supernatant is snap frozen and stored at −80 C until needed.
# Incubations are carried out at 4 degrees Celsius for 16 hours. After incubation, 70 ul of 3× dextran-coated charcoal solution is added to each reaction, mixed, and incubated for 8 minutes at RT. 3×-dextran-coated charcoal solution consists of 250 ml assay binding buffer, 3.75 g Norit A charcoal (Sigma), and 1.25 g dextran T-70 (Amersham). Charcoal/unbound radioligand complexes are removed by centrifugation of the plate and 140 ul of supernatant from each well is transferred to another 96 well Optiplate (Packard Instruments). 200 ul of Microscint-20 scinillant (Packard Instruments) is added to each well and amount of receptor bound radioligand is determined using Packard Instruments TopCount instrument.
SMILES,Ki [1],Ki [2]
"COc1ccc(C(C)(C)c2c[nH]c3c(NS(C)(=O)=O)cccc23)cc1 [Example 55, N-{3-[1-(4-Methoxy-phenyl)-1-methyl-ethyl]-1H-indol-7-yl}-methanesulfonamide]",< 500 nM,< 500 nM
CCCC(C)(c1ccc(OC(F)(F)F)cc1)c1c[nH]c2c(N)cccc12 (centres unmarked) [Example 35],< 500 nM,< 10000 nM
"CC(C)(c1cc2ccccc2o1)c1c[nH]c2c(NS(C)(=O)=O)cccc12 [Example 9, N-[3-(1-Benzofuran-2-yl-1-methyl-ethyl)-1H-indol-7-yl]-methanesulfonamide]",< 500 nM,< 500 nM
"CCCC(C)(c1ccc(F)cc1)c1c[nH]c2c(C)cccc12 (centres unmarked) [Example 26, 3-[1-(4-Fluoro-phenyl)-1-methyl-butyl]-7-methyl-1H-indole]",< 500 nM,< 500 nM
"CC(C)(c1ccc(-c2ccccc2)cc1)c1c[nH]c2c(NS(C)(=O)=O)cccc12 [Example 39, N-[3-(1-Biphenyl-4-yl-1-methyl-ethyl)-1H-indol-7-yl]-methanesulfonamide]",< 500 nM,< 1000 nM
"CCCC(C)(c1ccccc1OC)c1c[nH]c2c(NS(C)(=O)=O)cccc12 (centres unmarked) [Example 44, N-{3-[1-(2-Methoxy-phenyl)-1-methyl-butyl]-1H-indol-7-yl}-methanesulfonamide]",< 500 nM,< 500 nM
"CCCC(C)(c1ccc(OC)cc1)c1c[nH]c2c(CC)cccc12 (centres unmarked) [Example 19, 7-Ethyl-3-[1-(4-methoxy-phenyl)-1-methyl-butyl]-1H-indole]",< 500 nM,< 500 nM
"CS(=O)(=O)Nc1cccc2c(C3(c4ccccc4)CCCC3)c[nH]c12 [Example 21, N-[3-(1-Phenyl-cyclopentyl)-1H-indole-7-yl]-methanesulfonamide]",< 500 nM,< 500 nM
"CC(C)(c1csc2ccccc12)c1c[nH]c2c(NS(C)(=O)=O)cccc12 [Example 14, N-[3-(1-Benzo[b]thiophen-3-yl-1-methyl-ethyl)-1H-indol-7-yl]-methanesulfonamide]",< 500 nM,< 500 nM
"COc1ccc(C(C)(c2c[nH]c3c(C)cccc23)C2CC2)cc1 (centres unmarked) [Example 24, 3-[1-Cyclopropyl-1-(4-methoxy-phenyl)-ethyl]-7-methyl-1H-indole]",< 500 nM,< 500 nM
"CCC(C)(c1ccc(OC)cc1)c1c[nH]c2c(C)cccc12 (centres unmarked) [Example 31, 3-[1-(4-Methoxy-phenyl)-1-methyl-propyl]-7-methyl-1H-indole]",< 500 nM,< 500 nM
"CC(C)(c1cc2ccccc2s1)c1c[nH]c2c(NS(C)(=O)=O)cccc12 [Example 13, N-[3-(1-Benzo[b]thiophen-2-yl-1-methyl-ethyl)-1H-indol-7-yl]-methanesulfonamide]",< 500 nM,< 1000 nM
"Cc1cccc2c(C(C)(c3ccc(F)cc3)C3CC3)c[nH]c12 (centres unmarked) [Example 40, 3-[1-Cyclopropyl-1-(4-fluoro-phenyl)-ethyl]-7-methyl-1H-indole]",< 500 nM,< 500 nM

# Next, values leading:
Ki [1],Ki [2],SMILES
< 500 nM,< 500 nM,"CCC(C)(c1ccc(C)cc1)c1c[nH]c2c(NS(C)(=O)=O)cccc12 (centres unmarked) [Example 65, N-[3-(1-Methyl-1-p-tolyl-propyl)-1H-indol-7-yl]-methanesulfonamide]"
< 500 nM,< 500 nM,"CCC(CC)(c1ccc(C)cc1)c1c[nH]c2c(NS(C)(=O)=O)cccc12 [Example 54, N-[3-(1-Ethyl-1-p-tolyl-propyl)-1H-indol-7-yl]-methanesulfonamide]"
< 500 nM,< 500 nM,"CCc1ccc(C(CC)(CC)c2c[nH]c3c(NS(C)(=O)=O)cccc23)cc1 [Example 66, N-{3-[1-Ethyl-1-(4-ethyl-phenyl)-propyl]-1H-indol-7-yl}-methanesulfonamide]"
< 500 nM,< 500 nM,"CCC(CC)(c1ccco1)c1c[nH]c2c(NS(C)(=O)=O)cccc12 [Example 30, N-[3-(1-Ethyl-1-furan-2-yl-propyl)-1H-indol-7-yl]-methanesulfonamide]"
< 500 nM,< 500 nM,"CCC(CC)(c1ccccc1F)c1c[nH]c2c(NS(C)(=O)=O)cccc12 [Example 68, N-{3-[1-Ethyl-1-(2-fluoro-phenyl)-propyl]-1H-indol-7-yl}-methanesulfonamide]"
< 500 nM,< 500 nM,"CCC(CC)(c1ccc(SC)cc1)c1c[nH]c2c(NS(C)(=O)=O)cccc12 [Example 8, N-{3-[1-Ethyl-1-(4-methylsulfanyl-phenyl)-propyl]-1H-indol-7-yl}-methanesulfonamide]"
< 500 nM,< 500 nM,"CCC(CC)(c1ccc2c(c1)CCO2)c1c[nH]c2c(NS(C)(=O)=O)cccc12 [Example 3, N-{3-[1-(2,3-Dihydro-benzofuran-5-yl)-1-ethyl-propyl]-1H-indol-7-yl}-methanesulfonamide]"
< 500 nM,< 500 nM,"CCC(CC)(c1ccc(C(F)(F)F)cc1)c1c[nH]c2c(NS(C)(=O)=O)cccc12 [Example 63, N-{3-[1-Ethyl-1-(4-trifluoromethyl-phenyl)-propyl]-1H-indol-7-yl}-methanesulfonamide]"
< 500 nM,< 500 nM,"Cc1ccc(C(C)(C)c2c[nH]c3c(NS(C)(=O)=O)cccc23)cc1 [Example 12, N-[3-(1-Methyl-1-p-tolyl-ethyl)-1H-indol-7-yl]-methanesulfonamide]"
< 500 nM,< 500 nM,"CCC(CC)(c1cccc(C)c1)c1c[nH]c2c(NS(C)(=O)=O)cccc12 [Example 71, N-[3-(1-Ethyl-1-m-tolyl-propyl)-1H-indol-7-yl]-methanesulfonamide]"
< 500 nM,< 500 nM,"CCC(C)(c1ccc(F)cc1)c1c[nH]c2c(NS(C)(=O)=O)cccc12 (centres unmarked) [Example 73, N-{3-[1-(4-Fluoro-phenyl)-1-methyl-propyl]-1H-indol-7-yl}-methanesulfonamide]"
< 500 nM,< 500 nM,"CCCC(C)(c1ccc(C)cc1)c1c[nH]c2c(NS(C)(=O)=O)cccc12 (centres unmarked) [Example 1, N-[3-(1-Methyl-1-p-tolyl-butyl)-1H-indol-7-yl]methane sulfonamide]"
